Like-named read-outs stand apart in the source and are kept apart here.
What was measured:
[1] = test system: Influenza H3N2 (A/HK/7/87); test: Antiviral CPE reduction assay; format: cell-based; conditions: Influenza A virus, MDCK cells
in vitro [2] = conditions: dog
HCoV OC43 = test: Antiviral CPE reduction assay; format: cell-based, human coronavirus OC43; conditions: Betacoronavirus 1, OC43, HEL 299 cells
[3] = test system: Influenza B (B/Ned/537/05); test: Antiviral CPE reduction assay; format: cell-based; conditions: Influenza B virus, MDCK cells
RSV A Long = test: Antiviral CPE reduction assay; format: cell-based, respiratory syncytial virus A; conditions: HEL 299 cells
YFV 17D = test: microbe, parasite or virus in culture; format: cell-based; conditions: Yellow fever virus, Huh-7, read-out: EC50 YFV 17D Huh7
HCoV 229E = test: Antiviral CPE reduction assay; format: cell-based; conditions: Human coronavirus 229E, HEL 299 cells
HCoV NL63 = test: Antiviral CPE reduction assay; format: cell-based; conditions: Human coronavirus NL63, Huh-7, Huh7 cells
[4] = test system: Influenza H1N1 (A/Ned/378/05); test: Antiviral CPE reduction assay; format: cell-based; conditions: Influenza A virus, MDCK cells
Zika mr766 = test: Antiviral CPE reduction assay; format: cell-based; conditions: Zika virus, Huh-7, Huh7 cells
[5] = test system: HL-60 acute myeloid leukemia cells; test: In vitro antiproliferative activity, MTS proliferation assay; format: cell-based; conditions: Homo sapiens, 72 h
Method: (§1) Culture media were purchased from Gibco Life Technologies, USA, and supplemented with 10% fetal bovine serum (HyClone, GE Healthcare Life Sciences, Chicago, IL, USA), except for the media for SW620, PC3 and HeLa cells, which were purchased from Sigma.
(§2) Cells were incubated for 72 h with compounds and were then analyzed using the CellTiter 96® AQueous One Solution Cell Proliferation Assay (MTS) reagent (Promega) according to the manufacturer’s instructions. […] Compounds were tested in two independent experiments. SW620, PC3 and HeLa cells were seeded in 96-well microtiter plates at 1 × 10^4 to 3 × 10^4 cells/mL, depending on the doubling times of the specific cell line. Test agents were then added in five 10-fold dilutions (10^−8 to 10^−4 M). Working dilutions were freshly prepared on the day of testing. After 72 h of incubation, the cell growth rate was evaluated using the MTT assay as described previously. […] Each test was performed in quadruplicate in at least two individual experiments.

[6] = test system: Capan-1 pancreatic adenocarcinoma cells; test: as above; format: cell-based; conditions: Homo sapiens, 72 h
Method: as §1, §2

[7] = test system: DND-41 acute lymphoblastic leukemia cells; test: as above; format: cell-based; conditions: Homo sapiens, DND41, 72 h
Method: as §1, §2

S. Pneumoniae ATCC 49619 = test: Antibacterial activity in vitro, broth microdilution; format: cell-based; conditions: Streptococcus pneumoniae, ATCC49619; broth microdilution (CLSI), 16–24 h at 37 °C
Method: (§3) Synthesized compounds were prepared as 10 mM DMSO solutions and tested in a final concentration range of 100–0.2 µM [34].
(§4) Broth microdilution testing was performed according to CLSI (Clinical Laboratory Standards Institute) guidelines. MIC (minimal inhibitory concentration) values were defined as the last tested concentration of the compound at which there was no visible growth of bacteria. Inoculums for each microorganism were prepared using the direct colony suspension method, where broth solutions that achieved turbidity equivalent to 0.5 McFarland standard were additionally diluted 100× with Ca-adjusted MH media (Becton Dickinson).

S. aureus ATCC 29213 = test: as above; format: cell-based; conditions: Staphylococcus aureus, ATCC29213; broth microdilution (CLSI), 16–24 h at 37 °C
Method: as §3, §4

E. coli ATCC 25922 = test: as above; format: cell-based; conditions: Escherichia coli, ATCC25922; broth microdilution (CLSI), 16–24 h at 37 °C
Method: as §3, §4

[8] = test system: Z-138 non-Hodgkin lymphoma cells; test: In vitro antiproliferative activity, MTS proliferation assay; format: cell-based, human; conditions: Homo sapiens, Z-138, 72 h
Excerpt: (§5) Human cancer cell lines used in this manuscript, namely Capan-1, HCT-116, NCI-H460, LN-229, HL-60, K-562, Z-138, SW620, PC3 and HeLa, were acquired from the American Type Culture Collection (ATCC, Manassas, VA, USA), while the DND-41 cell line was purchased from the Deutsche Sammlung von Mikroorganismen und Zellkulturen (DSMZ Leibniz-Institut, Germany). Culture media were purchased from Gibco Life Technologies, USA, and supplemented with 10% fetal bovine serum (HyClone, GE Healthcare Life Sciences, Chicago, IL, USA), except for the media for SW620, PC3 and HeLa cells, which were purchased from Sigma.
(§6) Adherent cell lines LN-229, HCT-116, NCI-H460 and Capan-1 cells were seeded at a density between 500 and 1500 cells per well in 384-well tissue culture plates (Greiner). […]. Cells were incubated for 72 h with compounds and were then analyzed using the CellTiter 96® AQueous One Solution Cell Proliferation Assay (MTS) reagent (Promega) according to the manufacturer’s instructions. Absorbance of the samples was measured at 490 nm using a SpectraMax Plus 384 (Molecular Devices), and OD values were used to calculate the 50% inhibitory concentration (IC50). Compounds were tested in two independent experiments. SW620, PC3 and HeLa cells were seeded in 96-well microtiter plates at 1 × 10^4 to 3 × 10^4 cells/mL, depending on the doubling times of the specific cell line. Test agents were then added in five 10-fold dilutions (10^−8 to 10^−4 M). Working dilutions were freshly prepared on the day of testing. After 72 h of incubation, the cell growth rate was evaluated using the MTT assay as described previously. Absorbance of the samples was measured at 570 nm, and OD values were used to calculate the 50% inhibitory concentration (IC50). Each test was performed in quadruplicate in at least two individual experiments.

[9] = test system: NCI-H460 lung carcinoma cells; test: as above; format: cell-based; conditions: Homo sapiens, 72 h
Excerpt: as §5, §6

[10] = test system: K-562 chronic myeloid leukemia cells; test: as above; format: cell-based; conditions: Homo sapiens, K562, 72 h
Excerpt: as §5, §6

[11] = test system: LN-229 glioblastoma cells; test: as above; format: cell-based; conditions: Homo sapiens, 72 h
Excerpt: as §5, §6

[12] = test system: HCT-116 colorectal carcinoma cells; test: as above; format: cell-based; conditions: Homo sapiens, 72 h
Excerpt: as §5, §6

E. coli Efflux Del = test: microbe, parasite or virus in culture; format: cell-based; conditions: Escherichia coli, read-out: MIC E. coli Efflux Del
Method: as §3, §4

in vitro [13] = test: in vitro
[14] = test system: PC3 prostate carcinoma cells; test: In vitro antiproliferative activity, MTT assay; format: cell-based; conditions: Homo sapiens, 72 h
Excerpt: as §5, §6

[15] = test system: SW620 colon carcinoma cells; test: In vitro antiproliferative activity, MTT assay; format: cell-based; conditions: Homo sapiens, SW-620, 72 h
Excerpt: as §5, §6

[16] = test system: HeLa cervical carcinoma cells; test: In vitro antiproliferative activity, MTT assay; format: cell-based; conditions: Homo sapiens, 72 h
Excerpt: as §5, §6

in vitro [17] = conditions: human
in vitro [18] = conditions: human; remark: listed apart in the source
Sindbis = test: Antiviral CPE reduction assay; format: cell-based; conditions: Sindbis virus, Huh-7, Huh7 cells
HSV-1 KOS = test: Antiviral CPE reduction assay; format: cell-based, herpes simplex virus-1; conditions: Human alphaherpesvirus 1
[19] = human respiratory syncytial virus, HEL 299, CPE reduction
[20] = human respiratory syncytial virus, CPE reduction

SMILES	CC50 (in vitro [2])	EC50 (HCoV OC43)	EC50 (YFV 17D)	EC50 (HCoV 229E)	EC50 (HCoV NL63)	EC50 (Zika mr766)	IC50 [5]	IC50 [6]	IC50 [7]	MIC (S. Pneumoniae ATCC 49619)	MIC (S. aureus ATCC 29213)	MIC (E. coli ATCC 25922)	IC50 [8]	IC50 [9]	IC50 [10]	IC50 [11]	IC50 [12]	melting point	MIC (E. coli Efflux Del)	IC50 [14]	also measured
NC(=O)c1ncn([C@@H]2O[C@H](CO)[C@@H](O)[C@H]2O)n1 [Ribavirin, ribavirin, reference compound]	80.2 ± 18.6 µM	170 µM	> 250 µM	82.6 µM	> 250 µM	> 250 µM	–	–	–	–	–	–	–	–	–	–	–	–	–	–	EC50 [1]: 4 ± 2.7 µM; EC50 [3]: 2.8 ± 1.8 µM; EC50 (RSV A Long; [19]): 10.8 ± 2.1 µM; EC50 [4]: 10.5 ± 3.8 µM
c1ccc(-c2nc3ncccc3[nH]2)cc1 [Compound 5, 2-Phenyl-1H-imidazo[4:5-b]pyridine]	79.2 ± 29.4 µM	–	–	–	–	–	81.7 ± 26 µM	98 ± 2.9 µM	> 100 µM	> 64 µM	> 64 µM	> 64 µM	> 100 µM	> 100 µM	> 100 µM	> 100 µM	> 100 µM	290 to 291 °C	> 64 µM	> 100 µM	CC50 (in vitro [13]): > 30 µM; IC50 [15]: > 100 µM; IC50 [16]: 13.6 ± 3.4 µM
Cl.c1cnc2nc(-c3ccc(C4=NCCN4)cc3)[nH]c2c1 [Compound 11, 2-(4-(4,5-Dihydro-1H-imidazol-2-yl)phenyl)-1H-imidazo[4,5-b]pyridine Hydrochloride]	> 100 µM	–	–	–	–	–	> 100 µM	74.5 ± 36.1 µM	48.8 ± 12.5 µM	> 64 µM	> 64 µM	> 64 µM	76.4 ± 33.4 µM	84.9 ± 21.4 µM	> 100 µM	81.7 ± 17.4 µM	> 100 µM	> 300 °C	> 64 µM	≥ 100 µM	CC50 (in vitro [13]): > 30 µM; IC50 [15]: 12.1 ± 3.7 µM; IC50 [16]: 11.1 ± 3.5 µM
CCC(CC)COC(=O)[C@H](C)N[P@](=O)(OC[C@H]1O[C@@](C#N)(c2ccc3c(N)ncnn23)[C@H](O)[C@@H]1O)Oc1ccccc1 [Remdesivir, remdesivir, reference compound]	–	0.06 µM	6.2 µM	0.06 µM	0.03 µM	0.7 µM	–	–	–	–	–	–	–	–	–	–	–	–	–	–	EC50 (RSV A Long; [20]): 0.03 ± 0.01 µM; CC50 (in vitro [17]): > 10 µM; CC50 (in vitro [18]): > 10 µM; EC50 (Sindbis): > 10 µM
Cn1c(-c2ccc(C#N)cc2)nc2cccnc21 [Compound 17, 4-(3-Methyl-3H-imidazo[4,5-b]pyridin-2-yl)benzonitrile]	> 100 µM	> 100 µM	> 100 µM	> 100 µM	> 100 µM	> 100 µM	> 100 µM	> 100 µM	> 100 µM	> 64 µM	> 64 µM	> 64 µM	> 100 µM	> 100 µM	> 100 µM	> 100 µM	> 100 µM	183 to 185 °C	> 64 µM	> 100 µM	EC50 (HSV-1 KOS): > 100 µM; EC50 [1]: > 100 µM; EC50 [3]: > 100 µM; EC50 (RSV A Long; CPE reduction): 79 ± 29.7 µM; EC50 (RSV A Long; [19]): 58 µM; CC50 (in vitro [17]): > 100 µM; CC50 (in vitro [18]): > 100 µM; EC50 (Sindbis): > 100 µM; EC50 [4]: > 100 µM; IC50 [15]: > 100 µM; IC50 [16]: > 100 µM
Brc1cnc2nc(-c3ccc(C4=NCCCN4)cc3)[nH]c2c1.Cl [Compound 15, 6-Bromo-2-(4-(1,4,5,6-tetrahydropyrimidin-2-yl)phenyl)-1H-imidazo[4,5-b]pyridine Hydrochloride]	> 100 µM	–	–	–	–	–	> 100 µM	> 100 µM	17 ± 1.3 µM	> 64 µM	> 64 µM	> 64 µM	29.1 ± 16.5 µM	> 100 µM	> 100 µM	73.5 ± 0.8 µM	> 100 µM	> 300 °C	> 64 µM	8.6 ± 0.7 µM	CC50 (in vitro [13]): > 30 µM; IC50 [15]: 3.5 ± 0.2 µM; IC50 [16]: 7.3 ± 0.4 µM
Cl.N=C(N)c1ccc(-c2nc3ncc(Br)cc3[nH]2)cc1 [Compound 10, 4-(6-Bromo-1H-imidazo[4,5-b]pyridin-2-yl)benzimidamide Hydrochloride]	> 100 µM	> 100 µM	> 100 µM	> 100 µM	> 100 µM	> 100 µM	> 100 µM	> 100 µM	> 100 µM	> 64 µM	> 64 µM	> 64 µM	> 100 µM	> 100 µM	> 100 µM	> 100 µM	> 100 µM	> 300 °C	> 64 µM	≥ 100 µM	EC50 (HSV-1 KOS): > 100 µM; EC50 [1]: 79.2 ± 14.7 µM; EC50 [3]: 94 ± 5.2 µM; EC50 (RSV A Long; [20]): 86.9 ± 18.6 µM; CC50 (in vitro [17]): > 100 µM; CC50 (in vitro [18]): > 100 µM; EC50 (Sindbis): > 100 µM; EC50 [4]: 71.4 ± 24.3 µM; IC50 [15]: 0.4 ± 0.1 µM; IC50 [16]: 1.3 ± 0.26 µM
Brc1cnc2nc(-c3ccccc3)[nH]c2c1 [Compound 7, 6-Bromo-2-phenyl-1H-imidazo[4,5-b]pyridine]	> 100 µM	> 100 µM	> 100 µM	> 100 µM	> 100 µM	> 100 µM	–	–	–	> 64 µM	> 64 µM	> 64 µM	–	–	–	–	–	> 300 °C	> 64 µM	–	EC50 (HSV-1 KOS): > 100 µM; EC50 [1]: > 100 µM; EC50 [3]: > 100 µM; EC50 (RSV A Long; [19]): 21 ± 5.9 µM; CC50 (in vitro [17]): > 100 µM; CC50 (in vitro [18]): > 100 µM; EC50 (Sindbis): > 100 µM; EC50 [4]: > 100 µM
O=c1[nH]c(=O)n([C@H]2C[C@H](O)[C@@H](CO)O2)cc1/C=C/Br [BVDU, brivudine, reference compound]	> 100 µM	–	–	–	–	–	–	–	–	–	–	–	–	–	–	–	–	–	–	–	EC50 (HSV-1 KOS): 0.05 µM
